In patent US20090304692A1, “TRIAZINE COMPOUNDS AS PI3 KINASE AND MTOR INHIBITORS” (Wyeth, priority 2008, published 2009):
“And” between values parts separate entries of the source, which are not always exact repeats. Equal values may be shown once. Read-outs that look alike come from different tables or passages of the source.

Legend:
[1] = tested on: human prostate PC3-mm2 tumor cell line; test: In vitro cell culture growth assay (MTS), PC3-mm2; format: cell-based; details: Homo sapiens, PC3MM2, 72 h, three days after drug treatment, read-out: IC50 PC3-mm2
Human mTOR (FLAG-TOR) = Human mTOR (FLAG-TOR) (Homo sapiens, UniProt P42345); test: mTOR kinase assay (DELFIA format, purified enzyme); format: biochemical
[2] = tested on: human breast MDA-MB-361 tumor cell line; test: In vitro cell culture growth assay (MTS), MDA-MB-361; format: cell-based; details: Homo sapiens, three days after drug treatment, read-out: IC50 MDA-MB-361
PI3K-γ = PI3K-γ (Homo sapiens, UniProt P48736); test: PI3K-gamma fluorescence polarization assay; details: read-out: IC50 PI3Kγ
PI3K-α = PI3K-α (Homo sapiens, UniProt P42336); test: PI3K-alpha fluorescence polarization assay; details: read-out: IC50 PI3Kα
[3] = MTS cell growth assay, PC3-mm2 cells
[4] = 72 h, MTS cell growth assay, MDA-MB-361 cells
[5] = MDA-MB-361, 72 h, MTS cell growth assay
[6] = MDA-MB-361, 72 h, MTS cell growth assay, MDA-MB-361 cells

Chain of Human mTOR (FLAG-TOR) (P42345 1360-2549 limits assumed): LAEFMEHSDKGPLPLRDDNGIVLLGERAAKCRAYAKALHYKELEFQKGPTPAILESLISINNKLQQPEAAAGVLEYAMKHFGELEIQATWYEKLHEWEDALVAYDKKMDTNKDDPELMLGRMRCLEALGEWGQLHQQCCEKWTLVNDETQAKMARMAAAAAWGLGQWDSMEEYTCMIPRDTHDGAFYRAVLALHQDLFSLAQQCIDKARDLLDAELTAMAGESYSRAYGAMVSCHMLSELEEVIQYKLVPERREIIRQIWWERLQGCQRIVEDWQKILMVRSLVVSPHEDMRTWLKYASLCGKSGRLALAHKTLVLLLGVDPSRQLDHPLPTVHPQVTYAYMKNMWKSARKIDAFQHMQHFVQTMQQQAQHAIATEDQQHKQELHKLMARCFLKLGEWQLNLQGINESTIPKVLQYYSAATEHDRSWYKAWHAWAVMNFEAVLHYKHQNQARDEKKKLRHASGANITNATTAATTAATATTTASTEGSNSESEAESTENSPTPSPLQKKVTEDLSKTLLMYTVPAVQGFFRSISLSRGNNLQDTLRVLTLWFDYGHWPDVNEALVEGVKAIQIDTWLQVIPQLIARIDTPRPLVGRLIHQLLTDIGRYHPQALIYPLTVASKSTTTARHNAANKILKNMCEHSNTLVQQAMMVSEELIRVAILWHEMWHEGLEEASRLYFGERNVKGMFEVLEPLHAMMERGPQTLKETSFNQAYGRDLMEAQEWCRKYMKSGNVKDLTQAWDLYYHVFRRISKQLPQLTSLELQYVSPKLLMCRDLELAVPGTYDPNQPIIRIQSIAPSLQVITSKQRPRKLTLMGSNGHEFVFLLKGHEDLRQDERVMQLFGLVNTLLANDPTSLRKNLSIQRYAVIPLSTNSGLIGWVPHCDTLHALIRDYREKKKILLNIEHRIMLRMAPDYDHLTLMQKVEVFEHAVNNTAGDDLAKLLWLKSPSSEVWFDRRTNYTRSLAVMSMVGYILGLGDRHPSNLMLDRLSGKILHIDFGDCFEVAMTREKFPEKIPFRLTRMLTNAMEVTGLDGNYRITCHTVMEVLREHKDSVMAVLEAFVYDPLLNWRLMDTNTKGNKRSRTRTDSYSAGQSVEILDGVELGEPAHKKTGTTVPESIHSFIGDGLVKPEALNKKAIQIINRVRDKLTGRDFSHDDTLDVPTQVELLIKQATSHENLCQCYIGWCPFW
Chain of PI3K-γ (P48736 whole entry, species assumed): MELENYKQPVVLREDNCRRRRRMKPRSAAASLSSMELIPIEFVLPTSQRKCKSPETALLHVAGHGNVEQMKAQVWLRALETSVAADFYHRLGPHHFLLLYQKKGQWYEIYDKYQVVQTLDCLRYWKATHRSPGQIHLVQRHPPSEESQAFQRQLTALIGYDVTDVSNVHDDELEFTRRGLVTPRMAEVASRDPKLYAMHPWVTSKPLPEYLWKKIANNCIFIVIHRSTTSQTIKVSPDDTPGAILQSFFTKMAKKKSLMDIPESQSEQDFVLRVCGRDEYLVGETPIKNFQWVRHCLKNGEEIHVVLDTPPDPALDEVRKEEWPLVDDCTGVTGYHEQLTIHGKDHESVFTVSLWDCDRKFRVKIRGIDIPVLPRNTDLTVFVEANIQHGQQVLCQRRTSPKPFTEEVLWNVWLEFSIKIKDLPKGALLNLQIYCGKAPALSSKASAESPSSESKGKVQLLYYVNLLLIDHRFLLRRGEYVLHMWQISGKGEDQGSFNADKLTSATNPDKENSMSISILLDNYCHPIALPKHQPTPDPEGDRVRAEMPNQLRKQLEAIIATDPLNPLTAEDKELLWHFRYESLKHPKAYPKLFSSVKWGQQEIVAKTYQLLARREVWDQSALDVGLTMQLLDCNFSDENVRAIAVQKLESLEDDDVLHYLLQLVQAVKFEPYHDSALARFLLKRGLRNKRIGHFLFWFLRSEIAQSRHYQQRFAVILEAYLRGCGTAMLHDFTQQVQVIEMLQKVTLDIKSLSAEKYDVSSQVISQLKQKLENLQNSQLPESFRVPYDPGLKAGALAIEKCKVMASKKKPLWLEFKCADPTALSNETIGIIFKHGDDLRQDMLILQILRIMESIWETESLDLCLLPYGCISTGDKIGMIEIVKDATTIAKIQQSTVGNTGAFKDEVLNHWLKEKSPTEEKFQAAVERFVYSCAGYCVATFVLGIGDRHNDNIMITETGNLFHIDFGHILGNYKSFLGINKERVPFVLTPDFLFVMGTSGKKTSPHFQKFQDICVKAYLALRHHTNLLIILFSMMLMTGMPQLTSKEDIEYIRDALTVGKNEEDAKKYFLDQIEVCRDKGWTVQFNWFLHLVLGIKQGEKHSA
Chain of PI3K-α (P42336 whole entry, species assumed): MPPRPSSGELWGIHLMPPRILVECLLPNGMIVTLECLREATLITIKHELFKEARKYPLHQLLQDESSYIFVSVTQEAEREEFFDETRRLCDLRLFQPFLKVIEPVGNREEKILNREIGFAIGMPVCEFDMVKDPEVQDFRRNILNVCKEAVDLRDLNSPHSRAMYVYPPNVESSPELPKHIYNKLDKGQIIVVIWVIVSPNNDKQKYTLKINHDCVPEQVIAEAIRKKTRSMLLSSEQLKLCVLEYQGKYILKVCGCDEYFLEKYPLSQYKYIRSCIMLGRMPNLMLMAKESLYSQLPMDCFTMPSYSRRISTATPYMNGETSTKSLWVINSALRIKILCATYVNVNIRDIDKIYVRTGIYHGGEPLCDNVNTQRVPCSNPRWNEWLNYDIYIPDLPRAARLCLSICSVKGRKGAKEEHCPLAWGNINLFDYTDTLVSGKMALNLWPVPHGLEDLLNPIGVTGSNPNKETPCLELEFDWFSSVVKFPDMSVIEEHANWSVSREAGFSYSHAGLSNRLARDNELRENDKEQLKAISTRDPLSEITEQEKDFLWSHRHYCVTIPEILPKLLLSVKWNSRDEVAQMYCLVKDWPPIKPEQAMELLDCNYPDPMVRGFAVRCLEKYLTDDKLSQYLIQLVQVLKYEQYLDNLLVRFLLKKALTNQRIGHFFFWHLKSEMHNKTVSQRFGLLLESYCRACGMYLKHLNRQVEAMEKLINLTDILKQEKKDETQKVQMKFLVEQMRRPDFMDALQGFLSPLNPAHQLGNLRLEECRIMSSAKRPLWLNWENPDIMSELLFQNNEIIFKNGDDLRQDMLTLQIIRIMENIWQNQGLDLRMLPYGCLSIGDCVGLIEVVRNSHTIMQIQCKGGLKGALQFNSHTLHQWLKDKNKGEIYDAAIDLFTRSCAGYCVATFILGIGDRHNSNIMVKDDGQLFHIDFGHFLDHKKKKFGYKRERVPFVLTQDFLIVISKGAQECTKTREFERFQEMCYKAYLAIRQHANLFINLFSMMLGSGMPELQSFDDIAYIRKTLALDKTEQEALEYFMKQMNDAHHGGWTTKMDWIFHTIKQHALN
Chain of PI3K-α (P27986 whole entry partner, species assumed): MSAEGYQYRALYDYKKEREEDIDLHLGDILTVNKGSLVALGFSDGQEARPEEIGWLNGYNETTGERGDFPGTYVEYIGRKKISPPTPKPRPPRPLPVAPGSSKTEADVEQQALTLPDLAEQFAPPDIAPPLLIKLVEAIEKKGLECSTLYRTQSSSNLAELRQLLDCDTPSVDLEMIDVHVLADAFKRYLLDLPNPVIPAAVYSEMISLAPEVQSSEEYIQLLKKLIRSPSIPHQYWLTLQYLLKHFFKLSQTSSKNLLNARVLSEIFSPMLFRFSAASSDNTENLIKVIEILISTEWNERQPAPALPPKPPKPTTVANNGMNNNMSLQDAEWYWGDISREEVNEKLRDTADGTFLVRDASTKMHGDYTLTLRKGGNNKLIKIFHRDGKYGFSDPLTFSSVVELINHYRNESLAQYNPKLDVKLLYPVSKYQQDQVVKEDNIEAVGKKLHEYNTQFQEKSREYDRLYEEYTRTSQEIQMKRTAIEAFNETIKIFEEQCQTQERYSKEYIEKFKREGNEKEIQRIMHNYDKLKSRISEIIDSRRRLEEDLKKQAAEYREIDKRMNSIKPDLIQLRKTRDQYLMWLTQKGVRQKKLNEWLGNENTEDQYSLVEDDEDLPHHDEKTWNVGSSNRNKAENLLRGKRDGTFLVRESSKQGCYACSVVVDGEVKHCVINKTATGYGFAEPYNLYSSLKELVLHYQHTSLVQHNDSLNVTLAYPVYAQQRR

Row | Structure (SMILES) | IC50 [1, 3] [nM] | IC50 (Human mTOR (FLAG-TOR); read-out: IC50 mTOR) | IC50 (PI3K-γ) [nM] | IC50 (PI3K-α) [nM] | IC50 ([1]; MTS cell growth assay) [nM] | IC50 [2, 5] [nM] | further results
1 | CN(C)c1ccc(NC(=O)Nc2ccc(-c3nc(OC4CCOCC4)nc(N4CCOCC4)n3)cc2)cc1 [Example 66, 1-[4-(dimethylamino)phenyl]-3-{4-[4-morpholin-4-yl-6-(tetrahydro-2H-pyran-4-yloxy)-1,3,5-triazin-2-yl]phenyl}urea] | – | 1.65 nM | 30 | 7 | 66 | 59 | –
2 | CCN1CCN(C(=O)c2ccc(NC(=O)Nc3ccc(-c4nc(N5CCOCC5)nc(N5C6COCC5COC6)n4)cc3)cc2)CC1 [Example 806, 1-{4-[4-(3,7-dioxa-9-azabicyclo[3.3.1]non-9-yl)-6-morpholin-4-yl-1,3,5-triazin-2-yl]phenyl}-3-{4-[(4-ethylpiperazin-1-yl)carbonyl]phenyl}urea] | – | 0.24 nM | 47 | 4.5 | – | – | IC50 ([1]; PC3-mm2 cells, MTS): 9 nM; IC50 ([2]; MDA-MB-361, 72 h, MDA-MB-361 cells, MTS): < 3.2 nM
3 | CN1CCN(Cc2ccc(NC(=O)Nc3ccc(-c4nc(N5CCOCC5)nc(N5C6CCC5COC6)n4)cc3)cc2)CC1 [Example 250, 1-{4-[(4-methylpiperazin-1-yl)methyl]phenyl}-3-{4-[4-morpholin-4-yl-6-(3-oxa-8-azabicyclo[3.2.1]oct-8-yl)-1,3,5-triazin-2-yl]phenyl}urea] | 31 | – | 190 | 21 | 31 | 14 | IC50 (Human mTOR (FLAG-TOR); IC50 mTOR): 0.9 nM and 0.805 nM; IC50 [2, 6]: 14 nM; IC50 (PI3K-γ; listed as 727): 190 nM
4 | CN(C)CCN(C)C(=O)c1ccc(NC(=O)Nc2ccc(-c3nc(N4CCOCC4)nc(N4C5COCC4COC5)n3)cc2)cc1 [Example 768, N-[2-(dimethylamino)ethyl]-4-[({4-[4-(3,7-dioxa-9-azabicyclo[3.3.1]non-9-yl)-6-morpholin-4-yl-1,3,5-triazin-2-yl]phenyl}carbamoyl)amino]-N-methylbenzamide] | 8 | 0.115 nM | 18.5 | 1.2 | – | – | IC50 [2, 4]: 7 nM
5 | CNC(=O)c1ccc(NC(=O)Nc2ccc(-c3nc(N4CCOCC4)nc(N4C5CCC4COC5)n3)cc2)cc1 [Example 696, N-methyl-4-[({4-[4-morpholin-4-yl-6-(3-oxa-8-azabicyclo[3.2.1]oct-8-yl)-1,3,5-triazin-2-yl]phenyl}carbamoyl)amino]benzamide] | 13 | 0.275 nM | 73.5 | 4.5 | – | – | IC50 [2, 6]: 13 nM
6 | NC(=O)c1ccc(NC(=O)Nc2ccc(-c3nc(N4CCOCC4)nc(N4C5CCC4COC5)n3)cc2)cc1 [Example 35, 4-[({4-[4-morpholin-4-yl-6-(3-oxa-8-azabicyclo[3.2.1]oct-8-yl)-1,3,5-triazin-2-yl]phenyl}carbamoyl)amino]benzamide] | 27.5 | 0.21 nM and 0.212 nM | 54 | 6 | 27.5 | 22.5 | IC50 (PI3K-γ; listed as 670): 53 nM; IC50 (PI3K-α; listed as 670): 5 nM
7 | CN1CCN(c2ccc(NC(=O)Nc3ccc(-c4nc(N5CCOCC5)nc(N5C6CCC5COC6)n4)cc3)cc2)CC1 [Example 43, 1-[4-(4-methylpiperazin-1-yl)phenyl]-3-{4-[4-morpholin-4-yl-6-(3-oxa-8-azabicyclo[3.2.1]oct-8-yl)-1,3,5-triazin-2-yl]phenyl}urea] | 40 | 0.77 nM and 1.65 nM and 1.17 nM | 35 | 28 | 40 | 35.8 | IC50 [2, 6]: 35.8 nM; IC50 (PI3K-γ; listed as 229): 70 nM; IC50 (PI3K-γ; listed as 678): 45.3 nM; IC50 (PI3K-α; listed as 229): 19 nM; IC50 (PI3K-α; listed as 678): 21.3 nM

More lines, main results first:

Row | IC50 [1, 3] [nM] | IC50 (Human mTOR (FLAG-TOR); read-out: IC50 mTOR) | IC50 (PI3K-γ) [nM] | IC50 (PI3K-α) [nM] | IC50 ([1]; MTS cell growth assay) [nM] | IC50 [2, 5] [nM] | Structure (SMILES) | further results
8 | 379 | 4.4 nM | 54 | 8.5 | – | – | CN(C)CCCNC(=O)c1ccc(NC(=O)Nc2ccc(-c3nc(-c4ccccc4)nc(N4CCOCC4)n3)cc2)cc1 [Example 556, N-[3-(dimethylamino)propyl]-4-({[4-(4-morpholin-4-yl-6-phenyl-1,3,5-triazin-2-yl)phenyl]carbamoyl}amino)benzamide] | IC50 [2, 4]: 128 nM
9 | 28.3 | 3.9 nM and 3.2 nM | 9 | 2 | 28.3 | 10.7 | CN1CCN(C(=O)c2ccc(NC(=O)Nc3ccc(-c4nc(C5=CCOCC5)nc(N5CCOCC5)n4)cc3)cc2)CC1 [Example 163, 1-{4-[4-(3,6-dihydro-2H-pyran-4-yl)-6-morpholin-4-yl-1,3,5-triazin-2-yl]phenyl}-3-{4-[(4-methylpiperazin-1-yl)carbonyl]phenyl}urea] | IC50 [2, 6]: 10.7 nM; IC50 (PI3K-γ; listed as 507): 8.7 nM; IC50 (PI3K-α; listed as 507): 1.6 nM
10 | 13 | 0.12 nM | 12 | < 2.4 | – | – | O=C(Nc1ccc(C(=O)NCCN2CCCC2)cc1)Nc1ccc(-c2nc(C3CCOCC3)nc(N3CCOCC3)n2)cc1 [Example 513, 4-[({4-[4-morpholin-4-yl-6-(tetrahydro-2H-pyran-4-yl)-1,3,5-triazin-2-yl]phenyl}carbamoyl)amino]-N-(2-pyrrolidin-1-ylethyl)benzamide] | IC50 [2, 4]: 2 nM
11 | 404 | 4 nM and 4.45 nM | 29 | 5 | 404 | 176 | O=CCCc1nc(-c2ccc(NC(=O)Nc3ccncc3)cc2)nc(N2CCOCC2)n1 [Example 280, 1-{4-[4-morpholin-4-yl-6-(3-oxopropyl)-1,3,5-triazin-2-yl]phenyl}-3-pyridin-4-ylurea] | IC50 (PI3K-γ; listed as 737): 30 nM; IC50 (PI3K-α; listed as 737): 7 nM
12 | – | 1 nM and 0.63 nM | 8 | 0.4 | 8.33 | < 3 | O=C(Nc1ccc(C(=O)N2CCC(N3CCCC3)CC2)cc1)Nc1ccc(-c2nc(N3CCOCC3)nc(N3CCOCC3)n2)cc1 [Example 74, 1-(4-(4,6-dimorpholino-1,3,5-triazin-2-yl)phenyl)-3-(4-(4-(pyrrolidin-1-yl)piperidine-1-carbonyl)phenyl)urea] | IC50 (PI3K-γ; listed as 179): 13 nM; IC50 (PI3K-α; listed as 179): 1 nM
13 | – | 7.9 nM | 121 | 55 | 3340 | 1210 | CCc1nc(-c2ccc(NC(=O)Nc3ccc(C(=O)O)cc3)cc2)nc(N2CCOCC2)n1 [Example 233, 4-({[4-(4-ethyl-6-morpholin-4-yl-1,3,5-triazin-2-yl)phenyl]carbamoyl}amino)benzoic acid] | –
14 | – | 3.5 nM | 38 | 5 | 56 | 56 | O=C(Nc1ccncc1)Nc1ccc(-c2nc(C3=CCOCC3)nc(N3CCOCC3)n2)cc1 [Example 100, 1-{4-[4-(3,6-Dihydro-2H-pyran-4-yl)-6-morpholin-4-yl-[1,3,5]triazin-2-yl]-phenyl}-3-pyridin-4-yl-urea] | –
15 | 326 | 3.75 nM | 29 | 3.2 | – | – | NS(=O)(=O)N1CCC(Oc2nc(-c3ccc(NC(=O)Nc4ccncc4)cc3)nc(N3CCOCC3)n2)CC1 [Example 692, 4-[(4-morpholin-4-yl-6-{4-[(pyridin-4-ylcarbamoyl)amino]phenyl}-1,3,5-triazin-2-yl)oxy]piperidine-1-sulfonamide] | IC50 [2, 4]: 97 nM
16 | – | 83 nM | 37 | 6 | 177 | 38 | CCCCc1nc(-c2ccc(NC(=O)Nc3ccc(C(=O)N4CCN(C)CC4)cc3)cc2)nc(N2CCOCC2)n1 [Example 232, 1-[4-(4-butyl-6-morpholin-4-yl-1,3,5-triazin-2-yl)phenyl]-3-{4-[(4-methylpiperazin-1-yl)carbonyl]phenyl}urea] | –
17 | – | 0.8 nM | 58 | 21 | 759 | 430 | CC(C)c1nc(-c2ccc(NC(=O)Nc3ccc(C(=O)O)cc3)cc2)nc(N2CCOCC2)n1 [Example 301, 4-[({4-[4-(1-methylethyl)-6-morpholin-4-yl-1,3,5-triazin-2-yl]phenyl}carbamoyl)amino]benzoic acid] | –
18 | 242 | 15 nM | 19 | 3 | – | – | CCN1CCN(C(=O)c2ccc(NC(=O)Nc3ccc(-c4nc(-c5cccs5)nc(N5CCOCC5)n4)cc3)cc2)CC1 [Example 575, 1-{4-[(4-ethylpiperazin-1-yl)carbonyl]phenyl}-3-{4-[4-morpholin-4-yl-6-(2-thienyl)-1,3,5-triazin-2-yl]phenyl}urea] | IC50 [2, 4]: 15 nM
